The source of these data is patent US20240199613A1 (TAKEDA PHARMACEUTICAL COMPANY LIMITED, priority 2021, published 2024).

SMILES strings stand for the structures.

The target of test [1] is human activated kallikrein enzyme (Homo sapiens, UniProt P03952). The experiment in a line: Inhibition of activated plasma kallikrein, fluorogenic peptide substrate (PFR-AMC) assay, 500 pM enzyme format. The settings on record: 500 pM activated kallikrein, 300 uM PFR-AMC, 30 min preincubation, 10 min reaction, room temperature; read-out: Primary Dose Response Assay: Average EC50. The format is biochemical. In a few lines:
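500 pM enzyme preincubated 30 min at room temperature with inhibitor in 20 mM Tris pH 7.5, 150 mM NaCl, 1 mM EDTA, 0.1% PEG-400, 0.1% Triton X-100. Reaction started with 300 uM PFR-AMC and run 10 min at room temperature. Fluorescence read at 380 nm excitation/460 nm emission.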

The target of the next test is T1, plasma kallikrein (Homo sapiens, UniProt P03952).
T1 construct: from tissue; host or cells: sodium citrate collected human plasma (78% final)
Kind of test: Neat human plasma assay: contact pathway-activated (FXIIa) plasma, PFR-AMC substrate. The settings on record: citrated human plasma (78% final), 10 nM human FXIIa, 100 μM PFR-AMC, room temperature. The format is biochemical. The procedure: To analyze inhibition of plasma kallikrein in an ex vivo setting, the potency of compounds was measure in contact pathway-activated plasma assays. In a fluorogenic peptide substrate assay, test compounds dissolved in DMSO were added to sodium citrate collected human or rat plasma in a 96-well microplate. Alternatively, citrated plasma was collected from rats administered the compounds orally or by IV. 10 nM of human FXIIa (Enzyme Research Laboratories) diluted in pKal buffer (20 mM Tris-HCl, pH 7.5, 150 mM NaCl, 1 mM EDTA, 0.1% PEG-8000, and 0.1% Triton X-100) was added to the plasma, followed by the 100 μM of the profluorescent, synthetic plasma kallikrein substrate PFR-AMC (also diluted in pKal buffer). Final plasma concentration in the reaction was 78%. Fluorescence was immediately monitored by excitation/emission wavelengths of 360 nm/480 nm respectively over a period of 5 minutes in a microplate reader. The resulting linear increase in fluorescence emission (reflecting pKal proteolysis of PFR-AMC substrate) was fit to extract a proteolytic rate (fluorescent units over time), and this rate was subsequently plotted against compound inhibitor concentration. Resulting plots were fit to a standard 4-parameter IC50/IC90 equation to determine min/max values, IC50/90, and slope. All experimental steps were performed at room temperature.

human activated kallikrein enzyme, sequence (P03952 391-638 limits assumed): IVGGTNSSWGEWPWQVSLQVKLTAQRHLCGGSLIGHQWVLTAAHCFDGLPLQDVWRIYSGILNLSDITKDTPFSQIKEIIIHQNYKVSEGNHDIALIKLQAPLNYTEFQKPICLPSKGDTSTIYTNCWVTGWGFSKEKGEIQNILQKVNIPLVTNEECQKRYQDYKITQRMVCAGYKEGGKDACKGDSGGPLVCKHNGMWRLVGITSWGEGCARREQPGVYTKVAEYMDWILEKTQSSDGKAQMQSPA
human activated kallikrein enzyme, sequence (P03952 20-390 partner limits assumed): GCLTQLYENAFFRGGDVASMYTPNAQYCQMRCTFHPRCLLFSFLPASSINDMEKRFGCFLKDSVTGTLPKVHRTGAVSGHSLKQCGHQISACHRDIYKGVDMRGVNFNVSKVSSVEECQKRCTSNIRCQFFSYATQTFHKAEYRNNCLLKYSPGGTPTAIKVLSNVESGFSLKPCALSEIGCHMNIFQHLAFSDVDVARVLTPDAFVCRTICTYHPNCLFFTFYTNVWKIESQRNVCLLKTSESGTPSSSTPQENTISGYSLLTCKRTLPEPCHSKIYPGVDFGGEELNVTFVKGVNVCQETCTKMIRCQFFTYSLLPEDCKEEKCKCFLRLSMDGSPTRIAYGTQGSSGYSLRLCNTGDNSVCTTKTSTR
T1 sequence (P03952 391-638 limits assumed): as the sequence (P03952 391-638 limits assumed) above
T1 sequence (P03952 20-390 partner limits assumed): as the sequence (P03952 20-390 partner limits assumed) above

Broadly, the EC50 is the concentration giving half of the maximal effect. One may read the IC90 as the concentration needed for an effect of 90%. Higher therefore signals a need for much substance. For the compound `COCc1cc(NCc2cn3cc(C4CC4)cc(N4CC(=O)N(C)C4=O)c3n2)cc2nc([C@H]3C[C@@H]3c3nccc(C)n3)ccc12` (racemic) [Example 75, rac-1-(6-cyclopropyl-2-(((5-(methoxymethyl)-2-((1S*,2S*)-2-(4-methylpyrimidin-2-yl)cyclopropyl)quinolin-7-yl)amino)methyl)imidazo[1,2-a]pyridin-8-yl)-3-methylimidazolidine-2,4-dione], the half-maximal effective concentration (EC50) in test [1] was not above 1 nM. On plasma kallikrein, this compound registered an IC90 of 400 to 1500 nM.
For the compound `Cc1ccnc([C@H]2C[C@@H]2c2cc(CO)c3ccc(NCc4cn5cc(C6CC6)cc(N6CC(=O)N(C)C6=O)c5n4)cc3n2)n1` (racemic) [Example 77, rac-1-(6-cyclopropyl-2-(((4-(hydroxymethyl)-2-((1S*,2S*)-2-(4-methylpyrimidin-2-yl)cyclopropyl)quinolin-7-yl)amino)methyl)imidazo[1,2-a]pyridin-8-yl)-3-methylimidazolidine-2,4-dione], in test [1], the EC50 is not above 1 nM. On plasma kallikrein, this compound yielded a concentration for an effect of 90% (IC90) of 400 to 1500 nM.
`Cc1ccnc([C@H]2C[C@@H]2c2ccc3ccc(NCc4cn5cc(C6CC6)cc(N6CC(=O)N(C7COC7)C6=O)c5n4)cc3n2)n1` (racemic) [Example 78, rac-1-(6-cyclopropyl-2-(((2-((1S*,2S*)-2-(4-methylpyrimidin-2-yl)cyclopropyl)quinolin-7-yl)amino)methyl)imidazo[1,2-a]pyridin-8-yl)-3-(oxetan-3-yl)imidazolidine-2,4-dione]: the EC50 in test [1] was not above 1 nM. The compound further returned an IC90 against plasma kallikrein of 1500 to 10000 nM.
The like results for `Cc1ccnc([C@H]2C[C@@H]2C2=CS(=O)(=O)c3cnc(NCc4cn5cc(C6CC6)cc(N6CC(=O)N(C)C6=O)c5n4)cc3N2)n1` (racemic) [Example 79, rac-1-(6-cyclopropyl-2-(((2-((1S*,2S*)-2-(4-methylpyrimidin-2-yl)cyclopropyl)-4,4-dioxido-1H-pyrido[3,4-b][1,4]thiazin-7-yl)amino)methyl)imidazo[1,2-a]pyridin-8-yl)-3-methylimidazolidine-2,4-dione] were, in that order, not above 1 nM and not above 400 nM.
The matching figures for `Cc1ccnc([C@H]2C[C@@H]2C2=NS(=O)(=O)c3ccc(N(C)Cc4cn5cc(C6CC6)ccc5n4)cc3N2)n1` (racemic) [Example 80, rac-6-(((6-cyclopropylimidazo[1,2-a]pyridin-2-yl)methyl)(methyl)amino)-3-((1S*,2S*)-2-(4-methylpyrimidin-2-yl)cyclopropyl)-4H-benzo[e][1,2,4]thiadiazine 1,1-dioxide]: not above 1 nM and 1500 to 10000 nM.
Regarding `Cc1ccnc([C@H]2C[C@@H]2c2ccc3ccc(NCc4cn5cc(C6CC6)cc(N6CC(=O)NC6=O)c5n4)cc3n2)n1` (racemic) [Example 81, rac-1-(6-cyclopropyl-2-(((2-((1S*,2S*)-2-(4-methylpyrimidin-2-yl)cyclopropyl)quinolin-7-yl)amino)methyl)imidazo[1,2-a]pyridin-8-yl)imidazolidine-2,4-dione], the half-maximal effective concentration (EC50) in test [1] is not above 1 nM. Further, the 90% effect concentration (IC90) at plasma kallikrein fell in the range of 1500 to 10000 nM.
Take `Cc1ccnc([C@H]2C[C@@H]2c2ccc3c(C#N)cc(NCc4cn5cc(C6CC6)cc(N6CC(=O)N(C)C6=O)c5n4)cc3n2)n1` (racemic) [Example 82, rac-7-(((6-cyclopropyl-8-(3-methyl-2,4-dioxoimidazolidin-1-yl)imidazo[1,2-a]pyridin-2-yl)methyl)amino)-2-((1S*,2S*)-2-(4-methylpyrimidin-2-yl)cyclopropyl)quinoline-5-carbonitrile]: in test [1], the concentration giving a half-maximal response (EC50) fell in the range of 1 to 10 nM. The same compound returned a concentration for an effect of 90% (IC90) on plasma kallikrein of 1500 to 10000 nM.
On to `COc1cc2ccc([C@H]3C[C@@H]3c3nccc(C)n3)nc2cc1NCc1cn2cc(C3CC3)cc(N3CC(=O)N(C)C3=O)c2n1` (racemic) [Example 84, rac-1-(6-cyclopropyl-2-(((6-methoxy-2-((1S*,2S*)-2-(4-methylpyrimidin-2-yl)cyclopropyl)quinolin-7-yl)amino)methyl)imidazo[1,2-a]pyridin-8-yl)-3-methylimidazolidine-2,4-dione], for which, in test [1], the EC50 is not above 1 nM. The compound also returned a 90% effect concentration (IC90) against plasma kallikrein of 1500 to 10000 nM.
The matching figures for `Cc1ccnc([C@H]2C[C@@H]2c2cc(CC#N)c3ccc(NCc4cn5cc(C6CC6)cc(N6CC(=O)N(C)C6=O)c5n4)cc3n2)n1` (racemic) [Example 85, rac-2-(7-(((6-cyclopropyl-8-(3-methyl-2,4-dioxoimidazolidin-1-yl)imidazo[1,2-a]pyridin-2-yl)methyl)amino)-2-((1S*,2S*)-2-(4-methylpyrimidin-2-yl)cyclopropyl)quinolin-4-yl)acetonitrile]: not above 1 nM and 1500 to 10000 nM.
For the compound `Cc1ccnc([C@H]2C[C@@H]2c2cc(O)c3cnc(NCc4cn5cc(C6CC6)cc(N6CC(=O)N(C)C6=O)c5n4)nc3n2)n1` (racemic) [Example 86, rac-1-(6-cyclopropyl-2-(((5-hydroxy-7-((1S*,2S*)-2-(4-methylpyrimidin-2-yl)cyclopropyl)pyrido[2,3-d]pyrimidin-2-yl)amino)methyl)imidazo[1,2-a]pyridin-8-yl)-3-methylimidazolidine-2,4-dione], the half-maximal effective concentration (EC50) in test [1] was not above 1 nM. The same compound gave an IC90 against plasma kallikrein of 1500 to 10000 nM.
For `Cc1ccnc([C@H]2C[C@@H]2c2ccc3c(N(C)C)cc(NCc4cn5cc(C6CC6)cc(N6CC(=O)N(C)C6=O)c5n4)cc3n2)n1` (racemic) [Example 88, rac-1-(6-cyclopropyl-2-(((5-(dimethylamino)-2-((1S*,2S*)-2-(4-methylpyrimidin-2-yl)cyclopropyl)quinolin-7-yl)amino)methyl)imidazo[1,2-a]pyridin-8-yl)-3-methylimidazolidine-2,4-dione], the EC50 in test [1] is not above 1 nM. On plasma kallikrein, this compound had an IC90 of 400 to 1500 nM.
On to `Cc1ccnc([C@H]2C[C@@H]2C2=NS(=O)(=O)c3cc(Cl)c(NCc4cn5cc(C6CC6)ccc5n4)cc3N2)n1` (racemic) [Example 89, rac-7-chloro-6-(((6-cyclopropylimidazo[1,2-a]pyridin-2-yl)methyl)amino)-3-((1S*,2S*)-2-(4-methylpyrimidin-2-yl)cyclopropyl)-4H-benzo[e][1,2,4]thiadiazine 1,1-dioxide], for which the concentration for a half-maximal effect (EC50) in test [1] was not above 1 nM. In addition, the 90% effect concentration (IC90) at plasma kallikrein lay in the range of 1500 to 10000 nM.
For `Cc1ccnc([C@H]2C[C@@H]2C2=NS(=O)(=O)c3ccc(OCc4cn5cc(C6CC6)ccc5n4)cc3N2)n1` (racemic) [Example 92, rac-6-((6-cyclopropylimidazo[1,2-a]pyridin-2-yl)methoxy)-3-((1S*,2S*)-2-(4-methylpyrimidin-2-yl)cyclopropyl)-4H-benzo[e][1,2,4]thiadiazine 1,1-dioxide], the EC50 in test [1] is not above 1 nM. At plasma kallikrein, the 90% effect concentration (IC90) was in the range of 1500 to 10000 nM.
For the compound `Cc1ccnc([C@H]2C[C@@H]2c2cc(C(C)(C)O)c3ccc(NCc4cn5cc(C6CC6)cc(N6CC(=O)N(C)C6=O)c5n4)cc3n2)n1` (racemic) [Example 95, rac-1-(6-cyclopropyl-2-(((4-(2-hydroxypropan-2-yl)-2-((1S*,2S*)-2-(4-methylpyrimidin-2-yl)cyclopropyl)quinolin-7-yl)amino)methyl)imidazo[1,2-a]pyridin-8-yl)-3-methylimidazolidine-2,4-dione], the 50% effective concentration (EC50) in test [1] was not above 1 nM. Further, the IC90 on plasma kallikrein lay in the range of 400 to 1500 nM.
For `COc1cc(NCc2cn3cc(C)cc(N4CC(=O)N(C)C4=O)c3n2)cc2nc([C@H]3C[C@@H]3c3nccc(C)n3)ccc12` (racemic) [Example 104, rac-1-(2-(((5-methoxy-2-((1S*,2S*)-2-(4-methylpyrimidin-2-yl)cyclopropyl)quinolin-7-yl)amino)methyl)-6-methylimidazo[1,2-a]pyridin-8-yl)-3-methylimidazolidine-2,4-dione], the EC50 in test [1] lay within 1 to 10 nM. Besides, on plasma kallikrein, the IC90 was 400 to 1500 nM.
Regarding `Cc1ccnc([C@H]2C[C@@H]2c2ccc3ccc(NCc4cn5cc(C6CC6)nc(N6CC(=O)N(C)C6=O)c5n4)cc3n2)n1` (racemic) [Example 106, rac-1-(6-cyclopropyl-2-(((2-((1S*,2S*)-2-(4-methylpyrimidin-2-yl)cyclopropyl)quinolin-7-yl)amino)methyl)imidazo[1,2-a]pyrazin-8-yl)-3-methylimidazolidine-2,4-dione], the EC50 in test [1] is 1 to 10 nM. This compound had a concentration for an effect of 90% (IC90) at plasma kallikrein of 1500 to 10000 nM.
Regarding `Cc1ccnc([C@H]2C[C@@H]2c2cc(O)c3ccc(N4C[C@@H](O)C[C@@H]4c4cn5cc(C6CC6)ccc5n4)cc3n2)n1` (relative stereo) [Example 54, rac-7-((2R,4S)-2-(6-cyclopropylimidazo[1,2-a]pyridin-2-yl)-4-hydroxypyrrolidin-1-yl)-2-((1S*,2S*)-2-(4-methylpyrimidin-2-yl)cyclopropyl)quinolin-4-ol], the half-maximal effective concentration (EC50) in test [1] is 1 to 10 nM. The compound also returned a concentration for an effect of 90% (IC90) against plasma kallikrein of 1500 to 10000 nM.
